Consider one molecule from patent US20100184708A1, “USE OF GLY-PRO-GLU-OH (GPE) AS A THERAPEUTIC AGENT” (priority 2007, published 2010).

As usually defined, the % inhibition is the relative decrease from the control value, in per cent. High values mean a strong effect, low ones a weak effect.

In the assay the test system is drug-resistant Mycobacterium tuberculosis. The following applies: peptide 10 micrograms per ml, seven days.

For the molecule `NCC(=O)N1CCC[C@H]1C(=O)N[C@@H](CCC(=O)O)C(=O)O` [IGF-I (1-3), Gly-Pro-Glu-OH], the “% inhibition” value came out at 0.0%.
